Results from PMC6533572, “Elucidation of the Differences in Cinobufotalin’s Pharmacokinetics Between Normal and Diethylnitrosamine-Injured Rats: The Role of P-Glycoprotein” (Frontiers in Pharmacology, 2019).
≈ marks a conversion by molar mass, not a printed value. Where two headings read alike, the source gives them in different places.

Tests used:
P-glycoprotein (P-gp) [1] = biological target: T1, P-glycoprotein (P-gp) (Homo sapiens, UniProt P08183); test: Cellular uptake (intracellular accumulation) in MDCK-MDR1 cells; type: in vitro ADME; conditions: 2 h; for increase of intracellular accumulation of cinobufotalin by verapamil: MDCK-MDR1 cells, verapamil 100 μM
T1 construct: expressed in transfected cells; host or cells: MDCK II (Madin Darby canine kidney) cells stably transfected with the MDR1 gene
T1 sequence (P08183 whole entry): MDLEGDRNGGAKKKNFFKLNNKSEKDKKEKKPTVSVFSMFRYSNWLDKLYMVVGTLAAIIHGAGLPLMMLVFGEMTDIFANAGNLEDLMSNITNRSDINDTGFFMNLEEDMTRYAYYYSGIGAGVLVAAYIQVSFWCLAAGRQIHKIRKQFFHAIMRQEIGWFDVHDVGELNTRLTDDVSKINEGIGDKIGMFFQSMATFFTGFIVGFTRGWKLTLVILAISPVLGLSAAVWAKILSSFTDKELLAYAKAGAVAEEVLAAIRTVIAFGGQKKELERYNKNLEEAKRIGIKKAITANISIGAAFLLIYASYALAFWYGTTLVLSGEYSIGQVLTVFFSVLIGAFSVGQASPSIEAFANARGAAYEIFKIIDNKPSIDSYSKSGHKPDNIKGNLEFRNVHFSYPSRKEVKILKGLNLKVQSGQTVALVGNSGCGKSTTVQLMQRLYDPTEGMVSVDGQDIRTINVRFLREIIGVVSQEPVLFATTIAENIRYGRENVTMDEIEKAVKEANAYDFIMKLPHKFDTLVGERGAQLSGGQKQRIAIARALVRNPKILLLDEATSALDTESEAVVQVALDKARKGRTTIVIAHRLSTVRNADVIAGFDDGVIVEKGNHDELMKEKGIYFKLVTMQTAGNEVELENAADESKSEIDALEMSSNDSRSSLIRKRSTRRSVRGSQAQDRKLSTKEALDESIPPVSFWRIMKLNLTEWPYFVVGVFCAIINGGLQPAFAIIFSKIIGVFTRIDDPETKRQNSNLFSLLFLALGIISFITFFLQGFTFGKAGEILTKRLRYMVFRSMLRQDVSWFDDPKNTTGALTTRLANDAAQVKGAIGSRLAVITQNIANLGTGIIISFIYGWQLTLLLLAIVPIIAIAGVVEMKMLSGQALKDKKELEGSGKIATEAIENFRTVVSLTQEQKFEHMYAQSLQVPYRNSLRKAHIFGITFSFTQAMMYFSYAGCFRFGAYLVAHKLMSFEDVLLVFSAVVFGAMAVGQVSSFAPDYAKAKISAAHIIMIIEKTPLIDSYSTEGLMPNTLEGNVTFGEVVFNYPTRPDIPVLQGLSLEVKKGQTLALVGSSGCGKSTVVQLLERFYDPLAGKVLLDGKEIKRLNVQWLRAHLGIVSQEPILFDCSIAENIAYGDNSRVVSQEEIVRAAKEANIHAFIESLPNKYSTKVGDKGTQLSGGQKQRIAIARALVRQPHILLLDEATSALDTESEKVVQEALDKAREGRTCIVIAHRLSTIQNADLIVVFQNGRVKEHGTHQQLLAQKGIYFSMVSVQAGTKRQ
Protocol: Madin Darby canine kidney (MDCK II) cells stably transfected with multidrug resistance 1 gene (MDCK-MDR1 cells) were conducted and used in cinobufotalin uptake studies. Wild type MDCK II or MDCK-MDR1 cells were seeded into six-well plates at the destiny of 2 × 10^5 cells/well and maintained at 37°C under 5% CO2 in DMEM with 10% FBS. The well-known P-gp inhibitor, verapamil (100 μM), was used as the positive control to evaluate the effect of P-gp on cinobufotalin uptake ([Bicker et al., 2017]).
The uptake experiment was performed when the cells reached 100% confluency. First, cells were washed three times using 37°C Hanks’ balanced salt solution (HBSS) buffer (pH = 7.2). Then, 2 mL HBSS (37°C, pH = 7.2) buffer containing cinobufotalin (5 and 20 μM) were added and incubated with cells in the absence or presence of potential P-gp inhibitors, verapamil (100 μM). After incubation for 2 h, the incubation medium was removed, and cells were washed three times using ice-cold HBSS buffer. Then 400 μL of ice-cold MeOH:H2O (1:1, v/v) were added into each well, the cells were collected and sonicated for 15 min in ice-cold water. The mixture was centrifuged at 4°C (12,000 g, 10 min), and the supernatant was subjected to UPLC-QTOF/MS for analyses.

[2] = Bidirectional transport across MDCK II cell monolayers; type: in vitro ADME, canine; conditions: dog; for efflux ratio at 120 min, 20 μM: read-out: ER
Protocol: (§1) MDCK II and MDCK-MDR1 cells were seeded into 12-well Transwell polycarbonate membrane inserts (12 mm diameter inserts, 0.4 μm pore size, Corning Costar) at a density of 6 × 10^5 cells/well. Cells were cultured at 37°C under 5% CO2 in DMEM with 10% FBS, and the culture medium was refreshed every other day. Experiments were conducted when the tight junctional cell monolayer formed. First, the cells were washed three times using 37°C preheated HBSS buffer (pH = 7.4) and preincubated in a shaking incubator for 30 min at 37°C. Then the transport studies were initiated after the blank HBSS buffer and dosing solution (HBSS buffer containing cinobufotalin at a final concentration of 20 μM) were added to the receiver compartment and donor compartment, respectively. Verapamil, if used, was added to both compartment during the incubated period. The volumes of the apical side (AP) and basolateral side (BL) were 0.5 and 1.5 mL, respectively. Samples (100 μL) were taken from the receiver compartment every 30 min during the incubation period of 120 min, and then replaced with the same volume of […]. At the end of the incubated period, aliquots of 100 μL were withdrawn from the donor compartment to calculated mass balance. All samples were mixed with 50 μL acetonitrile and centrifuged at 4°C (12,000 g, 10 min. The supernatant was subjected to UPLC-QTOF/MS for analyses.
(§2) The apparent permeability (cm/s) from apical-to-basal (Papp,AP-BL) and basal-to-apical (Papp,BL-AP) were calculated according to the following Equation (4), where dQ/dt is the rate of drug permeation (nmol/s), A is the area of polycarbonate membrane (A = 1.12 cm^2), and C0 is the initial concentration of cinobufotalin in the donor compartment.
(§3) The efflux ratio (ER) and net flux ratio were calculated according to Equations (5) and (6) as described in our previous research ([Sun et al., 2017]).
(§4) (5) ER=Papp, BL−AP/Papp, AP−BL

HepG2 cells = test: Wound healing assay, HepG2 cells; type: cell-based; conditions: 40, 60 and 80 nM, 24 h
Protocol: Hepatocellular cancer cells (HepG2 and Huh-7) were purchased from the cell bank of the Chinese Academy of Science (Shanghai, China). These cells were cultured in Dulbecco’s modified Eagle’s medium (DMEM) containing 10% fetal bovine serum (FBS), penicillin (100 units/mL) and streptomycin (100 units/mL) in a humidified atmosphere with 5% CO2 at 37 °C.
Wound healing assay was used to investigate the effect of cinobufotalin on the migration of HepG2 and Huh-7 cells. Cells were seeded into 6-well plates at the density of 4 × 10^5 cells/well and maintained until reaching monolayer confluence. The cells were scratched using 20-μL pipette tips and rinsed with PBS buffer for three times. And then the cells were cultured in serum-free medium containing different concentrations of cinobufotalin (40, 60, 80 nM). After treatment with cinobufotalin for different lengths of time (0 and 24 h), the width of wound was measured and the images of cells were acquired using inverted microscope (Leica, Wetzlar, German). The rate of wound healing = [(the wound width of 0 h - 24 h)/0 h wound width] × 100%. All experiments were performed in triplicate.

Water solubility = type: physicochemical; conditions: pH 7.0
Source text: Traditional Chinese Medicine (TMC) is widely used due to high efficiency and low toxicity in the treatment of various diseases. Toad venom (also known as Chan’su) is derived from the dried skin secretions of giant toads (Bufo gargarizans Cantor or Bufo melanostictus Suhneider) and is currently used in clinical practice, such as Cinobufacini injection, to treat HCC ([Kamano et al., 2002]; [Tang et al., 2008]; [Hu et al., 2011]; [Zhang et al., 2018]). Cinobufotalin (Figure 1A), a bufadienolide in chemical structure, is one of the major anti-tumor components of Cinobufacini injection ([Tao et al., 2010]; [Zhang et al., 2018]). […] This implied that cinobufotalin has shown excellent druggability.

P-glycoprotein (P-gp) [3] = biological target: T1, P-glycoprotein (P-gp); test: Bidirectional transport across MDCK-MDR1 cell monolayers; type: in vitro ADME; conditions: for Net flux ratio: ER MDCK-MDR1 / ER MDCK II, cinobufotalin 20 μM; for Papp A→B at 120 min, 20 μM / Papp B→A at 120 min, 20 μM / efflux ratio at 120 min, 20 μM: dog, MDCK-MDR1, cinobufotalin 20 μM; for efflux ratio at 120 min, 20 μM: read-out: ER
Protocol: as §1, §2, §3, §4
(6) Net flux ratio=ERMDCK−MDRI/ERMDCK II

[4] = pH 7.4, with verapamil (concentration not stated), in both compartments, cinobufotalin 20 μM, with verapamil
[5] = pH 7.4, with verapamil (concentration not stated), in both compartments, with verapamil

For `CC(=O)O[C@H]1[C@H]2O[C@]23[C@@H]2CC[C@]4(O)C[C@@H](O)CC[C@]4(C)[C@H]2CC[C@]3(C)[C@H]1c1ccc(=O)oc1` [Cinobufotalin], the “intracellular amount of cinobufotalin in MDCK II cells compared with MDCK-MDR1 cells” value (P-glycoprotein (P-gp) [1]; 5 and 20 μM) was “obviously higher”, the “increase of intracellular accumulation of cinobufotalin by verapamil” value (P-glycoprotein (P-gp) [1]; cinobufotalin 5 μM) was 4.0 fold and the “increase of intracellular accumulation of cinobufotalin by verapamil” value (P-glycoprotein (P-gp) [1]; cinobufotalin 20 μM) was 3.5 fold. It also gave a Papp A→B at 120 min, 20 μM ([2]; pH 7.4, cinobufotalin 20 μM) of 33.8 ± 1.1 ×10⁻⁶ cm/s, a Papp B→A at 120 min, 20 μM ([2]; pH 7.4, cinobufotalin 20 μM) of 35.9 ± 1.3 ×10⁻⁶ cm/s and an efflux ratio at 120 min, 20 μM ([2]; pH 7.4, cinobufotalin 20 μM) of 1.1. For the same compound, the Papp A→B at 120 min, 20 μM [2, 4] was 23.4 ± 2.2 ×10⁻⁶ cm/s, the Papp B→A at 120 min, 20 μM [2, 4] was 24.8 ± 2.7 ×10⁻⁶ cm/s and the efflux ratio at 120 min, 20 μM [2, 4] was 1.1. The “migration of HepG2 cells (wound healing)” value (HepG2 cells) was “significantly attenuated”, the solubility (Water solubility) was 117 µg/mL (≈ 256 µM) and the Net flux ratio (P-glycoprotein (P-gp) [3]) was 2.1. The Net flux ratio (P-glycoprotein (P-gp) [3]; with verapamil) was 1.0, the “decrease of net flux ratio when verapamil was used” value (P-glycoprotein (P-gp) [3]; MDCK-MDR1 vs MDCK II, with verapamil) was 50.7% and the Papp A→B at 120 min, 20 μM (P-glycoprotein (P-gp) [3]; [5]) was 32.1 ± 1.5 ×10⁻⁶ cm/s. The Papp B→A at 120 min, 20 μM (P-glycoprotein (P-gp) [3]; [5]) was 34.5 ± 2.3 ×10⁻⁶ cm/s, the efflux ratio at 120 min, 20 μM (P-glycoprotein (P-gp) [3]; [5]) was 1.1 and the Papp A→B at 120 min, 20 μM (P-glycoprotein (P-gp) [3]; pH 7.4) was 19.4 ± 1.3 ×10⁻⁶ cm/s. The Papp B→A at 120 min, 20 μM (P-glycoprotein (P-gp) [3]; pH 7.4) was 42.4 ± 1.5 ×10⁻⁶ cm/s, the efflux ratio at 120 min, 20 μM (P-glycoprotein (P-gp) [3]; pH 7.4) was 2.2 and the P-gp substrate identification (P-glycoprotein (P-gp) [3]; net flux ratio higher than 2 and reduction more than 50% with verapamil) was “substrate of P-gp”.
